Earlier results as cited in patent US20040137049A1, “Amphotericin b aqueous composition” (priority 2001, published 2004).
Converted amounts (≈) assume the structure as drawn.

Details: in methanol

## C[C@@H]1[C@H](O)[C@@H](C)/C=C/C=C/C=C/C=C/C=C/C=C/C=C/[C@H](O[C@@H]2O[C@H](C)[C@@H](O)[C@H](N)[C@@H]2O)C[C@@H]2O[C@](O)(C[C@@H](O)C[C@@H](O)[C@H](O)CC[C@@H](O)C[C@@H](O)CC(=O)O[C@H]1C)C[C@H](O)[C@H]2C(=O)O [Amphotericin B]
  Solubility: 100 µg/mL (≈ 108 µM)
